Results: US20240368135A1 (VERTEX PHARMACEUTICALS INCORPORATED, priority 2021, published 2024)

These compounds were tested against human NaV 1.8 (Homo sapiens, UniProt Q9Y5Y9) (assay: E-VIPR assay detecting and measuring NaV inhibition properties). Conditions: HEK cells expressing truncated human NaV 1.8; no human serum; read-out: IC50 in the E-VIPR Assay.
Format: cell-based
In short: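 HEK cells expressing truncated, fully active human NaV1.8, with KIR2.1 BacMam co-transduction, were loaded with CC2-DMPE/DiSBAC6(3) voltage-sensing dyes for 20 min at room temperature. Compounds were tested in 11-point 3-fold dilutions (300 nM top final), optionally with 25% human serum, under electrical stimulation with FRET read-out.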

Chain of human NaV 1.8 (Q9Y5Y9 126-399 limits assumed): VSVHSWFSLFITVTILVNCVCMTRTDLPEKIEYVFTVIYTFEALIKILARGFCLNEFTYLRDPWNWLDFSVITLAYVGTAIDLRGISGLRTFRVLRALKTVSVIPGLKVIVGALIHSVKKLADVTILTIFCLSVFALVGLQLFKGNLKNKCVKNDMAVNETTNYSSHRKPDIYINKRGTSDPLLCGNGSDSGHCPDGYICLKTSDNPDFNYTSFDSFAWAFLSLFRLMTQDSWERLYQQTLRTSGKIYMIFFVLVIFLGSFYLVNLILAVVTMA
Chain of human NaV 1.8 (Q9Y5Y9 660-890 limits assumed): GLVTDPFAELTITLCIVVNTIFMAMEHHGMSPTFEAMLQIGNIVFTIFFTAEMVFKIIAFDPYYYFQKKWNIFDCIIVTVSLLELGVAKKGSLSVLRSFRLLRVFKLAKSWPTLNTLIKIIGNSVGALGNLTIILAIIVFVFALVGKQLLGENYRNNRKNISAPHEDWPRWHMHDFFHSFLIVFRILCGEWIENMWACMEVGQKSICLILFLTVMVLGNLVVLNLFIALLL
Chain of human NaV 1.8 (Q9Y5Y9 1148-1722 limits assumed): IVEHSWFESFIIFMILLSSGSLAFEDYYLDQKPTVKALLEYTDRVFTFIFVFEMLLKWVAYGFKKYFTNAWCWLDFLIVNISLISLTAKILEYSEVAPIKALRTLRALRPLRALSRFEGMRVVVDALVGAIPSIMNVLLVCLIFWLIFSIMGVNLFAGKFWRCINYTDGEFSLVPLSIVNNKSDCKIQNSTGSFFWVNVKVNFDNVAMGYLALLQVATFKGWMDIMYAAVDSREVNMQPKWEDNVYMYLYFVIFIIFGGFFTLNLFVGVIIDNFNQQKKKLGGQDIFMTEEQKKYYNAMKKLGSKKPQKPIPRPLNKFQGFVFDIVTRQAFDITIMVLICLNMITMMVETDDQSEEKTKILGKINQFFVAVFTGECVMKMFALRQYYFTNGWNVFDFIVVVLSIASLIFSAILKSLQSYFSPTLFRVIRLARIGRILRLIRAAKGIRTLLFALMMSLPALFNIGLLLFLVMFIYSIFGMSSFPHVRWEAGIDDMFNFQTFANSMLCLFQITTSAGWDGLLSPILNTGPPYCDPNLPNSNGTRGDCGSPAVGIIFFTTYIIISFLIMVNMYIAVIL

SMILES | IC50
COc1c([C@H]2[C@H](C(=O)Nc3cc(C)nn3CCC#N)O[C@@](C)(C(F)(F)F)[C@H]2C)ccc(F)c1F [Compound 292, (2R,3S,4S,5R)-N-(1-(2-cyanoethyl)-3-methyl-1H-pyrazol-5-yl)-3-(3,4-difluoro-2-methoxyphenyl)-4,5-dimethyl-5-(trifluoromethyl)tetrahydrofuran-2-carboxamide] | ≥ 1000 nM
COc1c([C@@H]2C[C@](C)(C(F)(F)F)O[C@H]2C(=O)Nc2ccnc([C@@H](O)CO)c2)ccc(F)c1C (single isomer, unassigned) [Compound 706] | 10 to 100 nM
CNC(COC)c1cc(NC(=O)[C@@H]2O[C@@](C)(C(F)(F)F)[C@@H](C)[C@H]2c2ccc(F)c(F)c2OC)c(F)cn1 (single isomer, unassigned) [Compound 418, rel-(2R*,3S*,4S*,5R*)-3-(3,4-difluoro-2-methoxyphenyl)-N-(5-fluoro-2-(2-methoxy-1-(methylamino)ethyl)-pyridin-4-yl)-4,5-dimethyl-5-(trifluoromethyl)-tetrahydrofuran-2-carboxamide] | < 10 nM
COc1c([C@H]2[C@H](C(=O)Nc3ccnc(N4CCN(C)CC4=O)c3)O[C@@](C)(C(F)(F)F)[C@H]2C)ccc(F)c1C(F)F (single isomer, unassigned) [Compound 162] | < 10 nM
COc1c([C@H]2[C@H](C(=O)Nc3ccc4nc(C(=O)N(C)C)cn4c3)O[C@@](C)(C(F)(F)F)[C@H]2C)ccc(F)c1F [Compound 261, 6-((2R,3S,4S,5R)-3-(3,4-difluoro-2-methoxyphenyl)-4,5-dimethyl-5-(trifluoromethyl)tetrahydrofuran-2-carboxamido)-N,N-dimethylimidazo[1,2-a]pyridine-2-carboxamide] | 10 to 100 nM
Cc1nn(C(F)F)cc1NC(=O)[C@@H]1O[C@@](C)(C(F)(F)F)[C@@H](C)[C@H]1c1ccc(F)c(F)c1C(C)O (relative stereo) [Compound 680, rac-(2R*,3S*,4S*,5R*)-3-(3,4-difluoro-2-(1-hydroxyethyl)phenyl)-N-(1-(difluoromethyl)-3-methyl-1H-pyrazol-4-yl)-4,5-dimethyl-5-(trifluoromethyl)tetrahydrofuran-2-carboxamide] | 10 to 100 nM
COc1c([C@@H]2C[C@](C)(C(F)(F)F)O[C@H]2C(=O)Nc2ccnc(C(C)(O)CO)c2)ccc(F)c1F (single isomer, unassigned) [Compound 701] | 10 to 100 nM
Cc1nocc1NC(=O)[C@@H]1O[C@@](C)(C(F)(F)F)[C@@H](C)[C@H]1c1ccc(F)c(F)c1OCCN1CCOCC1 [Compound 586, (2R,3S,4S,5R)-3-(3,4-difluoro-2-(2-morpholinoethoxy)phenyl)-4,5-dimethyl-N-(3-methylisoxazol-4-yl)-5-(trifluoromethyl)tetrahydrofuran-2-carboxamide] | 10 to 100 nM
COc1c([C@H]2[C@H](C(=O)Nc3ccnc(N4C[C@@H]5CC[C@@H](N5)C4=O)c3)O[C@@](C)(C(F)(F)F)[C@H]2C)ccc(F)c1F (single isomer, unassigned) [Compound 494, rel-(2R*,3S*,4S*,5R*)-3-(3,4-difluoro-2-methoxyphenyl)-4,5-dimethyl-N-(2-((1R,5S)-2-oxo-3,8-diazabicyclo[3.2.1]octan-3-yl)pyridin-4-yl)-5-(trifluoromethyl)tetrahydrofuran-2-carboxamide] | 10 to 100 nM
C[C@@H]1[C@H](c2ccc(F)c(F)c2OC(F)F)[C@@H](C(=O)Nc2ccc(C(N)=O)cc2)O[C@]1(C)C(F)(F)F (stereo in doubt) [Compound 73, rel-(2S,3R,4R,5S)-N-(4-carbamoylphenyl)-3-(2-(difluoromethoxy)-3,4-difluorophenyl)-4,5-dimethyl-5-(trifluoromethyl)tetrahydrofuran-2-carboxamide] | ≥ 1000 nM
COc1c([C@H]2[C@H](C(=O)N3Cc4ccncc4C3)O[C@@](C)(C(F)(F)F)[C@H]2C)ccc(F)c1F [Compound 323, ((2R,3S,4S,5R)-3-(3,4-difluoro-2-methoxyphenyl)-4,5-dimethyl-5-(trifluoromethyl)-tetrahydrofuran-2-yl)(1,3-dihydro-2H-pyrrolo[3,4-c]pyridin-2-yl)methanone] | ≥ 1000 nM
C[C@H]1[C@@H](c2ccc(F)c(F)c2OC(F)F)[C@H](C(=O)Nc2ccnc(N3CCN(C)CC3=O)c2)O[C@@]1(C)C(F)(F)F [Compound 516, (2R,3S,4S,5R)-3-[2-(difluoromethoxy)-3,4-difluoro-phenyl]-4,5-dimethyl-N-[2-(4-methyl-2-oxo-piperazin-1-yl)-4-pyridyl]-5-(trifluoromethyl)tetrahydrofuran-2-carboxamide] | < 10 nM
COc1c([C@H]2[C@H](C(=O)Nc3cncn3C)O[C@@](C)(C(F)(F)F)[C@H]2C)ccc(F)c1F [Compound 313, (2R,3S,4S,5R)-3-(3,4-difluoro-2-methoxyphenyl)-4,5-dimethyl-N-(1-methyl-1H-imidazol-5-yl)-5-(trifluoromethyl)-tetrahydrofuran-2-carboxamide] | 10 to 100 nM
Cc1nn(C(F)F)cc1NC(=O)[C@@H]1O[C@@](C)(C(F)(F)F)[C@@H](C)[C@H]1c1ccc(F)c(F)c1OCC(=O)N(C)O [Compound 604, (2R,3S,4S,5R)-3-(3,4-difluoro-2-(2-(hydroxy(methyl)amino)-2-oxoethoxy)phenyl)-N-(1-(difluoromethyl)-3-methyl-1H-pyrazol-4-yl)-4,5-dimethyl-5-(trifluoromethyl)tetrahydrofuran-2-carboxamide] | 100 to 1000 nM

Second part, the compound after the results:

IC50 | SMILES
< 10 nM | COc1c([C@H]2[C@H](C(=O)Nc3cnnc(C(C)(C)O)c3)O[C@@](C)(C(F)(F)F)[C@H]2C)ccc(F)c1F [Compound 219, (2R,3S,4S,5R)-3-(3,4-difluoro-2-methoxy-phenyl)-N-[6-(1-hydroxy-1-methyl-ethyl)pyridazin-4-yl]-4,5-dimethyl-5-(trifluoromethyl)tetrahydrofuran-2-carboxamide]
< 10 nM | COc1c([C@H]2[C@H](C(=O)Nc3ccnc([C@H](O)[C@@H](C)O)c3)O[C@@](C)(C(F)(F)F)[C@H]2C)ccc(F)c1F (single isomer, unassigned) [Compound 203, rel-(2R*,3S*,4S*,5R*)-3-(3,4-difluoro-2-methoxyphenyl)-N-(2-((1S,2R)-1,2-dihydroxypropyl)pyridin-4-yl)-4,5-dimethyl-5-(trifluoromethyl)tetrahydrofuran-2-carboxamide]
< 10 nM | CCOc1c([C@H]2[C@H](C(=O)Nc3ccnc([S@@](C)(=O)=NC)c3)O[C@@](C)(C(F)(F)F)[C@H]2C)ccc(F)c1F (relative stereo) [Compound 12, rel-(2R,3S,4S,5R)—N-(2-(N,S-dimethylsulfonimidoyl)pyridin-4-yl)-3-(2-ethoxy-3,4-difluorophenyl)-4,5-dimethyl-5-(trifluoromethyl)tetrahydrofuran-2-carboxamide]
< 10 nM | CCS(=O)(=O)c1cc(NC(=O)C2OC(C)(C(F)(F)F)C(C)C2c2ccc(F)c(F)c2OC)ccn1 (single isomer, unassigned) [Compound 51, 3-(3,4-difluoro-2-methoxy-phenyl)-N-(2-ethylsulfonyl-4-pyridyl)-4,5-dimethyl-5-(trifluoromethyl)tetrahydrofuran-2-carboxamide]
< 10 nM | CCOc1c([C@H]2[C@H](C(=O)Nc3ccnc(S(C)(=N)=O)c3)O[C@@](C)(C(F)(F)F)[C@H]2C)ccc(F)c1C (single isomer, unassigned) [Compound 128]
< 10 nM | COc1c([C@H]2[C@H](C(=O)Nc3ccnc(N4C(=O)CN(C)C[C@H]4CO)c3)O[C@@](C)(C(F)(F)F)[C@H]2C)ccc(F)c1F [Compound 512, (2R,3S,4S,5R)-3-(3,4-difluoro-2-methoxyphenyl)-N-(2-((S)-2-(hydroxymethyl)-4-methyl-6-oxopiperazin-1-yl)pyridin-4-yl)-4,5-dimethyl-5-(trifluoromethyl)tetrahydrofuran-2-carboxamide]
< 10 nM | COCCOc1cc(NC(=O)[C@@H]2O[C@@](C)(C(F)(F)F)[C@@H](C)[C@H]2c2ccc(F)c(F)c2OCCO)ccn1 [Compound 567, (2R,3S,4S,5R)-3-(3,4-difluoro-2-(2-hydroxyethoxy)phenyl)-N-(2-(2-methoxyethoxy)pyridin-4-yl)-4,5-dimethyl-5-(trifluoromethyl)tetrahydrofuran-2-carboxamide]
10 to 100 nM | COc1c([C@H]2[C@H](C(=O)Nc3cnc4nncn4c3)O[C@@](C)(C(F)(F)F)[C@H]2C)ccc(F)c1F [Compound 388, (2R,3S,4S,5R)-N-([1,2,4]triazolo[4,3-a]pyrimidin-6-yl)-3-(3,4-difluoro-2-methoxyphenyl)-4,5-dimethyl-5-(trifluoromethyl)tetrahydrofuran-2-carboxamide]
10 to 100 nM | CNCC(=O)Nc1cc(NC(=O)[C@@H]2O[C@@](C)(C(F)(F)F)[C@@H](C)[C@H]2c2ccc(F)c(F)c2OC)ccn1 [Compound 488]
< 10 nM | CN=S(C)(=O)c1cc(NC(=O)[C@@H]2O[C@@](C)(C(F)(F)F)[C@@H](C)[C@H]2c2ccc(F)c(F)c2OC)ccn1 (relative stereo) [Compound 528, rel-(2R,3S,4S,5R)-3-(3,4-difluoro-2-methoxyphenyl)-N-(2-(N,S-dimethylsulfonimidoyl)pyridin-4-yl)-4,5-dimethyl-5-(trifluoromethyl)tetrahydrofuran-2-carboxamide]
10 to 100 nM | C[C@H]1[C@@H](c2ccc(F)c(F)c2O)[C@H](C(=O)Nc2ccnc(CO)c2)O[C@@]1(C)C(F)(F)F [Compound 638, (2R,3S,4S,5R)-3-(3,4-difluoro-2-hydroxyphenyl)-N-(2-(hydroxymethyl)pyridin-4-yl)-4,5-dimethyl-5-(trifluoromethyl)tetrahydrofuran-2-carboxamide]
10 to 100 nM | COc1c([C@H]2[C@H](C(=O)Nc3ccc(-n4ccnc4)nc3)O[C@@](C)(C(F)(F)F)[C@H]2C)ccc(F)c1F [Compound 401, (2R,3S,4S,5R)-N-(6-(1H-imidazol-1-yl)pyridin-3-yl)-3-(3,4-difluoro-2-methoxyphenyl)-4,5-dimethyl-5-(trifluoromethyl)-tetrahydrofuran-2-carboxamide]
